Assay [1] deals with T1, recombinant human cannabinoid receptor CB2 (Homo sapiens, UniProt P34972).
T1 construct: (cDNA clone) CNR0200000
Put plainly: Cannabinoid receptor radioligand binding assay, [3H]-CP 55,940 displacement, hCB2. The essentials:
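Membranes from hCB2-transfected cells, prepared by 1000×g then 40,000×g centrifugation, resuspended in 20 mM HEPES pH 7.4, 5 mM MgCl2, 1 mM EDTA, 10% sucrose.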

Assay [2] deals with T2, human CB2 receptors (Homo sapiens, UniProt P34972).
T2 construct: (cDNA clone) CNR0200000
In words: cAMP assay in HEK-293 cells, hCB2 agonist. In kind it is cell-based. In short, it runs like this: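 HEK-293 cells stably expressing human CB2, suspended at 1,500,000 cells/mL in HBSS with 10 mM HEPES and 0.1% fatty-acid-free BSA, exposed to test compound plus forskolin (90 uM in the 3× compound solution) for 30 min at 37° C.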
On the technique in general: cAMP levels reflect the balance of adenylyl cyclase and phosphodiesterase activity.

Assay [3] concerns the target T3, human CB1 receptors (Homo sapiens, UniProt P21554).
T3 construct: (cDNA clone) CNR01L000
In words: cAMP assay in HEK-293 cells, hCB1 agonist. It counts as cell-based. The following applies: inhibition of forskolin-stimulated cAMP, HEK-293 cells; for pEC50: read-out: hCB1 EC50 (cAMP ag). In short, it runs like this:
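Stable hCB1 HEK-293 cells suspended in HBSS with 10 mM HEPES and 0.1% fatty acid-free BSA, incubated 30 min at 37° C. with compound plus forskolin (90 uM in the 3× compound solution). Lysed cAMP measured by enzyme-fragment kit; EC50 = 50% inhibition of forskolin-stimulated cAMP (forskolin maximum = 100%), sigmoidal fit.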

Assay [4] deals with T4, human CB2 (hCB2) (Homo sapiens, UniProt P34972).
T4 construct: (cDNA clone) CNR0200000
Put plainly: 35S GTPγS binding assay, hCB2 agonist. It counts as biochemical. The essentials:
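Membranes (5 μg) from cells transfected with hCB2 cDNA in pcDNA3.1+ incubated with SPA beads, 0.1 nM [35S]GTPγS and 20 uM GDP in 50 mM HEPES pH 7.4, 100 mM NaCl, 5 mM MgCl2, 0.001% saponin, ± test compound. Incubation 90 min at room temperature; bound label read by scintillation counting.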
In general terms: GTPγS resists hydrolysis and so accumulates on activated G proteins.

pEC50, pIC50: −log10 of the molar value. Bounds are passed on as bounds.

T3 sequence (P21554 whole entry): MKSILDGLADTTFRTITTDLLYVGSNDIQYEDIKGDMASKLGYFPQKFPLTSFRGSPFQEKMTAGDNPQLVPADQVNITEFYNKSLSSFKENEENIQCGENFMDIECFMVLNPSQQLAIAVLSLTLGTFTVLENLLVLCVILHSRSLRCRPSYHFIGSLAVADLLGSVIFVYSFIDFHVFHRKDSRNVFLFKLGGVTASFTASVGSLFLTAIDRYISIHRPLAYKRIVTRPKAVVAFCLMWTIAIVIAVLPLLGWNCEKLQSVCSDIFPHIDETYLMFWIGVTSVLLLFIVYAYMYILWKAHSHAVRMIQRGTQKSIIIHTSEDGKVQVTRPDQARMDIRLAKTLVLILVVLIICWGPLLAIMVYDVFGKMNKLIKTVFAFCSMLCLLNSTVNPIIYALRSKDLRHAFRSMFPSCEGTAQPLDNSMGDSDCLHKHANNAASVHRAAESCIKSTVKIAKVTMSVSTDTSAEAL
T1 sequence (P34972 whole entry): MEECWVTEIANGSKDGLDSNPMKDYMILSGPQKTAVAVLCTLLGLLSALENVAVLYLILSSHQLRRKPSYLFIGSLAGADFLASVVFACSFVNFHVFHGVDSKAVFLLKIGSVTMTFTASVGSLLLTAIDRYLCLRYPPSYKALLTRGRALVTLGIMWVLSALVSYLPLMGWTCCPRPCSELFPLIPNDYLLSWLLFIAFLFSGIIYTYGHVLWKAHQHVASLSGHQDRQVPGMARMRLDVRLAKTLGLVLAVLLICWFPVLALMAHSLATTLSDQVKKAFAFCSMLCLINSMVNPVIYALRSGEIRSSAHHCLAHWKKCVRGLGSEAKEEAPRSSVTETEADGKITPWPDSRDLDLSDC
T2 sequence (P34972 whole entry): as above
T4 sequence (P34972 whole entry): as above

With `COc1ccc(C(=O)c2cc3cc(C)n(CC4CCOCC4)c3s2)cn1` [Compound 144, (6-methoxypyridin-3-yl)(5-methyl-6-((tetrahydro-2H-pyran-4-yl)methyl)-6H-thieno[2,3-b]pyrrol-2-yl)methanone], the pIC50 (as a rule, −log10 of the IC50, conventionally taken in molar units) in assay [1] is 6.00 to 7.00. Besides, the negative logarithm of the EC50 (pEC50) in assay [2] and in assay [4] was > 7.00 in each case. Further, the “hCB1 EC50 (cAMP ag, nM)” value in assay [3] is listed as “NS (NS means “Not Significant,” which means less than 30% agonist activity when compared to the positive control.)”.
On to `COc1ccc(C(=O)c2cc3cc(C)n(CC4CCOCC4)c3s2)c(F)c1` [Compound 145, (2-fluoro-4-methoxyphenyl)(5-methyl-6-((tetrahydro-2H-pyran-4-yl)methyl)-6H-thieno[2,3-b]pyrrol-2-yl)methanone], for which, in assay [1], the negative logarithm of the IC50 (pIC50) was > 7.00. For the same compound, the values for the negative-log EC50 (pEC50) in assay [2], in assay [3] and in assay [4] were > 7.00, 5.00 to 6.00 and > 7.00, respectively.
As for `CCOc1ccc(C(=O)c2cc3cc(C)n(CCN4CCOCC4)c3s2)cn1` [Compound 150, (6-Ethoxypyridin-3-yl)(5-methyl-6-(2-morpholinoethyl)-6H-thieno[2,3-b]pyrrol-2-yl)methanone], in assay [1], the pIC50 is 5.00 to 6.00. Also, the figures for the negative logarithm of the EC50 (pEC50) in assay [2] and in assay [4] were > 7.00 and 6.00 to 7.00, respectively. The “hCB1 EC50 (cAMP ag, nM)” value in assay [3] was “NS (NS means “Not Significant,” which means less than 30% agonist activity when compared to the positive control.)”.
In the case of `COc1ccc(C(=O)c2cc3cc(C)n(CC4CCC(F)(F)CC4)c3s2)cn1` [Compound 170, (6-((4,4-difluorocyclohexyl)methyl)-5-methyl-6H-thieno[2,3-b]pyrrol-2-yl)(6-methoxypyridin-3-yl)methanone], the pIC50 in assay [1] was 6.00 to 7.00. Moreover, the negative-log EC50 (pEC50) in assay [2], in assay [3] and in assay [4] was > 7.00 each time.
